Reference: BindingDB's records for doi:10.1021/acsmedchemlett.1c00391 (Glaxosmithkline, 2021)

How the values were obtained:
[1] = Inhibition of HCV genotype 1b NS5A infected in HuH-7-Luc/Neo-ET cells assessed as reduction in viral replication measured by Luciferase reporter gene assay
[2] = Inhibition of HCV genotype 1a NS5A infected in HuH-7-Luc/Neo-ET cells assessed as reduction in viral replication measured by Luciferase reporter gene assay

| SMILES | EC50 [1] | EC50 [2] |
| --- | --- | --- |
| COC(=O)N[C@H]1CCC[C@@H]2CC[C@@H](c3ncc(-c4ccc(-c5ccc(-c6cnc([C@@H]7CCCN7C(=O)[C@@H](NC(=O)OC)C(C)C)[nH]6)cc5)cc4)[nH]3)N2C1=O | 0.037 nM | 0.471 nM |
| COC(=O)N[C@H](C(=O)N1CC2(C[C@H]1c1ncc(-c3ccc(-c4ccc(-c5cnc([C@@H]6CC[C@H]7CCC[C@H](N(C)C)C(=O)N76)[nH]5)cc4)cc3)[nH]1)OCCO2)C(C)C | 0.084 nM | 7.7 nM |
| COC(=O)N[C@H](C(=O)N1CCC[C@H]1c1ncc(-c2ccc(-c3ccc(-c4cnc([C@@H]5CC[C@@H]6CCC[C@@H](NC(=O)OC)C(=O)N65)[nH]4)cc3)cc2)[nH]1)C(C)C | 0.133 nM | 12 nM |
| COC(=O)N[C@H](C(=O)N1CC2(C[C@H]1c1ncc(-c3ccc(-c4ccc(-c5cnc([C@@H]6CC[C@H]7CCC[C@@H](N(C)C)C(=O)N76)[nH]5)cc4)cc3)[nH]1)OCCO2)C(C)C | 0.298 nM | 11 nM |
| COC(=O)N[C@H](C(=O)N1CC2(C[C@H]1c1ncc(-c3ccc(-c4ccc(-c5cnc([C@@H]6CC[C@H]7CCC[C@@H](NC(=O)OC)C(=O)N76)[nH]5)cc4)cc3)[nH]1)OCCO2)C(C)C | 0.047 nM | 0.707 nM |
| COC(=O)N[C@H]1CCC[C@@H]2CC[C@@H](c3ncc(-c4ccc(-c5ccc(-c6cnc([C@@H]7CC8(CN7C(=O)[C@@H](NC(=O)OC)C(C)C)OCCO8)[nH]6)cc5)cc4)[nH]3)N2C1=O | 0.064 nM | 1.5 nM |
| COC(=O)N[C@H]1CCC[C@H]2CC[C@@H](c3ncc(-c4ccc(-c5ccc(-c6cnc([C@@H]7CC8(CN7C(=O)[C@@H](NC(=O)OC)C(C)C)OCCO8)[nH]6)cc5)cc4)[nH]3)N2C1=O | 0.046 nM | 8.6 nM |
| COC(=O)N[C@H](C(=O)N1CCC[C@H]1c1ncc(-c2ccc(-c3ccc(-c4cnc([C@@H]5CC[C@H]6CCC[C@@H](NC(=O)OC)C(=O)N65)[nH]4)cc3)cc2)[nH]1)C(C)C | 0.059 nM | 0.673 nM |
| COC(=O)N[C@H](C(=O)N1CC2(C[C@H]1c1ncc(-c3ccc(-c4ccc(-c5cnc([C@@H]6CC[C@@H]7CCC[C@H](N(C)C)C(=O)N76)[nH]5)cc4)cc3)[nH]1)OCCO2)C(C)C | 0.209 nM | 32 nM |
| COC(=O)N[C@H]1CCC[C@H]2CC[C@@H](c3ncc(-c4ccc(-c5ccc(-c6cnc([C@@H]7CCCN7C(=O)[C@@H](NC(=O)OC)C(C)C)[nH]6)cc5)cc4)[nH]3)N2C1=O | 0.109 nM | 17 nM |
| COC(=O)N[C@H](C(=O)N1CC2(C[C@H]1c1ncc(-c3ccc(-c4ccc(-c5cnc([C@@H]6CC[C@@H]7CCC[C@@H](N(C)C)C(=O)N76)[nH]5)cc4)cc3)[nH]1)OCCO2)C(C)C | 0.217 nM | 119 nM |
| COC(=O)N[C@H](C(=O)N1CC2(C[C@H]1c1ncc(-c3ccc(-c4ccc(-c5cnc([C@@H]6CC[C@@H]7CCC[C@@H](NC(=O)OC)C(=O)N76)[nH]5)cc4)cc3)[nH]1)OCCO2)C(C)C | 0.08 nM | 15 nM |
| COC(=O)N[C@H](C(=O)N1CCC[C@H]1c1nc(-c2ccc(-c3ccc(-c4c[nH]c([C@@H]5CCCN5C(=O)[C@@H](NC(=O)OC)C(C)C)n4)cc3)cc2)c[nH]1)C(C)C [BMS-790052] | 0.032 nM | 0.079 nM |
